The record followed here is paper PMC12765074, “Mechanistic insights into enterocin C targeting the undecaprenyl phosphate recycling protein BacA” (The Journal of Biological Chemistry, 2025).

By IC50 is commonly meant the midpoint of a concentration-inhibition curve. Low values mean greater potency in that assay, high ones weaker potency in that assay.

Assay [1] deals with E. faecalis cells. Put plainly: growth prevention in liquid culture. The assay is classed as cell-based, Enterococcus faecalis.
Assay [2] has as its system BacAef-liposomes. As to conditions: 5 μM EntC, internal pH 8, external pH 6, peptide:lipid c.a. 1:1300, without EntC 1.10^-4 sec^-1.
In assay [3] the test system is E. faecalis EfΔbacA cells expressing BacAef D110A. Put plainly: survival test. The assay is classed as cell-based, Enterococcus faecalis. As to conditions: 0.5 μM EntC, 30 min, 37 °C, three experiments.
The test system of assay [4] is EfΔbacA cells carrying pIL:bacAef. Nature of the assay: spot assay on bacA-complemented strain. Format: cell-based, Enterococcus faecalis. The settings on record: spot on BHI agar.
The subject of assay [5] is E. faecalis EfΔbacA cells expressing BacAef. Nature of the assay: survival test. The assay is classed as cell-based, Enterococcus faecalis. The settings on record: 0.5 μM EntC, 30 min.
A short description of assay [6]: liposome permeabilisation assay (BCECF), protein-free. The settings on record: 5 μM EntC, internal pH 8, external pH 6. Format: biochemical.
For assay [7], the target named is T1, BacAef (Enterococcus faecalis, UniProt A0ACD6TE02). Nature of the assay: DSS crosslinking. As to conditions: BacAef and peptide 17 μM each, DSS 100- or 1000-fold excess, 30 min, 4 °C. The assay is classed as binding. The procedure:
Crosslinking experiments were performed using the amine-reactive, membrane-permeable, and non-cleavable crosslinker disuccinimidyl suberate (DSS) purchased from Sigma. EntC peptides and BacA protein were mixed at equimolar concentrations (17 μM) in buffer D in the presence of an excess of DSS crosslinker (1000-fold or 100-fold) in a final reaction volume of 20 μl. The reaction was incubated for 30 min at 4°C, and any unreacted DSS was quenched with 50 mM Tris-HCl. After separation on a 12% acrylamide gel, proteins were electrotransferred onto polyvinylidene difluoride (PVDF) membrane, and BacA was detected using peroxidase-coupled anti-His tag antibody (Penta-His HRP conjugate from Qiagen, RRID: AB_3699318) by chemiluminescence detection (Western Lightning Plus-ECL, PerkinElmer) using the ChemiDoc MP system (Bio-Rad).

Assay [8] has as its target T1, BacAef. Put plainly: UppS-coupled C55-PP phosphatase assay in liposomes, BacAef. Format: biochemical. As to conditions: DOPC:DOPG:DOPE liposomes, 20 mM HEPES pH 7.5, 37 °C, 10 min, TLC.
Protocol: The reconstitution of BacA and PgpB in liposomes was achieved through adapted protocols previously described ([48]). Liposomes were prepared by rehydrating a lipid film of DOPC: DOPG: DOPE (3 mg: 0.75 mg: 1.25 mg) after 4 h of desiccation by adding 1 ml of buffer (20 mM HEPES, pH 7.5, 50 mM NaCl, 15% glycerol). […] The lipid suspension underwent 10 freeze-thaw cycles in liquid nitrogen and was extruded through a 100 nm polycarbonate membrane (Millipore). Protein reconstitution was performed by destabilizing the liposomes with 5.5 mM Triton X-100 for 15 min. The protein was added at a final concentration of 15 μg/ml and the mixture was incubated at 4 °C for 15 min.
The liposomes were used to measure the C55-PP phosphatase activity of BacA in a membrane environment as follows. For each kinetic assay, 5 μl of a reaction mixture containing 20 μM C15-PP, 20 μM [^14C]C5-PP, 180 μM C5-PP in 20 mM HEPES, pH 7.5, 50 mM NaCl, and 15% glycerol were mixed with 5 μl of protein-free liposomes (as a control) or BacA-containing liposomes. The mixture was then supplemented with UppS at a final concentration of 0.2 mg/ml to initiate the enzymatic synthesis of C55-PP. The EntC peptides were added at various concentrations from a water solution. […] Substrates and products were separated and quantified by thin-layer chromatography as previously described for C55-PP phosphatase assay in detergent.
Assay [9] has as its system E. faecalis (V583-derivative strain, WT). Format: cell-based, Enterococcus faecalis. As to conditions: 6 μl droplets on a lawn of E. faecalis, BHI 0.75% agar, overnight; representative of three independent experiments.
Assay [10] deals with E. faecalis EfΔbacA cells expressing catalytically inactive variants of BacAef (E20A, S26A, R172A). Put plainly: spot-on-lawn assay, catalytic site mutants. The assay is classed as cell-based, Enterococcus faecalis.
In assay [11] the test system is E. faecalis EfΔbacA cells expressing BacAef K209A D110A. Put plainly: survival test. As to conditions: 0.5 μM EntC, 30 min, 37 °C, p ≤ 0.001, three experiments. Format: cell-based, Enterococcus faecalis.
Assay [12] concerns L. lactis IL1403. Nature of the assay: spot-on-lawn antibacterial assay, L. lactis. Format: cell-based, Lactococcus lactis. The settings on record: 6 μl droplets, L. lactis IL1403, M17G agar, overnight.

Marks after values point to notes of the source that are not given here.

On to Enterocin C [EntC], for which the “concentration required to prevent the growth of E. faecalis cells” value is reported as 100 nM in [1] (BHI), 50 nM in [1] (M17) and 2 nM in [1] (MRS). In addition, in assay [2], the “rate of decrease of BCECF fluorescence” value is listed as “about 6.10^-4 sec^-1”. The “% of survival” value in assay [3] is 2.8 ± 1.0%; in [5] (37 °C, BHI, CFU vs same cells without EntC, three independent experiments) it was less than 1%; in [11], 7.6 ± 1.0 ^e %. The “susceptibility of EfΔbacA strain with ectopic bacA” value in assay [4] is on record as “fully restored”. In assay [5] (exponentially growing cells expressing wild-type BacAef), the cells killed entry is on record as “more than 99%”. Further, the “membrane permeabilization of protein-free liposomes” value in assay [6] is recorded as “did not affect protein-free liposomes”. Besides, the “crosslinked complex band with BacAef (SDS-PAGE, western blot)” value in assay [7] is “two faint bands appeared above the BacA monomer”. Further, the IC50 in assay [8] amounted to 1200 ± 100 nM. In addition, in [9], the “antibacterial activity (spot-on-lawn), E. faecalis” value is “E. faecalis was only susceptible to EntC”. The “susceptibility of EfΔbacA expressing catalytic site mutant alleles” value in [10] was “restored with a plasmid expressing wild-type bacAef or any of the three catalytic site mutant alleles, although a slight decrease of the susceptibility was observed with R172A variant”. For the same substance, the “antibacterial activity (spot-on-lawn), L. lactis” value in assay [12] was “sensitivity to both bacteriocins”.
